Measured values published in paper PMC9822769, “The Strange Case: The Unsymmetric Cisplatin-Based Pt(IV) Prodrug [Pt(CH3COO)Cl2(NH3)2(OH)] Exhibits Higher Cytotoxic Activity with respect to Its Symmetric Congeners due to Carrier-Mediated Cellular Uptake” (Bioinorganic Chemistry and Applications, 2022).

How the values were obtained:
[1] = Immobilized artificial membrane (IAM) chromatography, log KW; format: physicochemical; details: IAM column; log k′ extrapolated to fully aqueous mobile phase
Experimental: Retention times, tR, were measured on two columns: (i) a standard C18 column (Phenomenex Phenosphere-NEXT, 250 × 4.6 mm, 5 μm) and (ii) an IAM.PC.DD.2 column (Regis, 10 cm × […], 10 μm packing 300 Å pore size), prepared by covalently bonding cell-membrane-forming phospholipids to silica. On (i), a chromatogram was performed for each complex (0.25 mM) in a fixed eluent composition (30% methanol/70% aqueous 15 mM formic acid; flow rate 0.5 mL·min^−1) using a Waters HPLC-MS instrument (equipped with an Alliance 2695 separation module, a 2487 dual lambda absorbance detector, and a 3100 mass detector). The UV-vis detector was set at 210 nm. In (ii), the mobile phase consisted of 20 mM ammonium acetate buffer at pH 6.9 and acetonitrile flowing at 1 mL·min^−1. The samples were dissolved in the mobile phase in a concentration range of 50–100 μg·mL^−1. An HPLC Varian ProStar instrument equipped with a 410 autosampler, a PDA 335 LC detector, and Galaxie Chromatography Data System Version 1.9.302.952 was used.
The different tRs were used to calculate log k′, which is the logarithm of the retention factor k′ = (tR − t0)/t0, where t0 is the column dead time (i.e., the tR of KCl or citric acid used as the internal reference for (i) and (ii), respectively).
In the case of IAM, the log KW values were calculated by an extrapolation method. Log k′ values were determined at a minimum of three different percentages of acetonitrile (ϕ) in the mobile phases (from 10 to 50%, v/v), and the intercept values of the linear relationships between log k′ and ϕ values were assumed as log KW [65, 66].
Immobilized artificial membrane (IAM) chromatography is a complementary technique for evaluating the interaction of a drug with the cellular membrane. In this technique, the stationary silica phase is covalently bonded to phospholipids, giving a material that is more similar to the cell membrane than the simpler aliphatic chains of the RP-HPLC columns. The log KW values (i.e., log k′ values extrapolated at fully aqueous mobile phase) show the same trend for the three Pt(IV) complexes (log KW = −0.64, −1.06, −0.96, and −0.83 for cisplatin, 1, 2, and 3, respectively) (Table 1).

[2] = system: A2780 cells; test: Cellular Pt accumulation in A2780 cells in the presence of uptake inhibitors; format: cell-based, human; details: A2780, 1 h, 10 μM; for effect of NaN3/2DG pretreatment on cell accumulation (AR): NaN3 and 2DG both 25 mM
Experimental: A2780 and A2780cisR cells were seeded in 10 mm Petri dishes and challenged with complexes under investigation (10 μM) in a complete medium for 4 h. At the end of the exposure, cells were washed three times with PBS, detached from Petri dishes using 0.05% trypsin 1x + 2% EDTA (HyClone, Thermo Fisher), and harvested in a completely fresh medium. An automatic cell counting device (Countess®, Life Technologies) was used to measure the number and mean diameter of each cell necessary to calculate the mean cellular (spherical) volume.
For the analysis of Pt accumulation, cells were transferred to a borosilicate glass tube and centrifuged at 1100 rpm for 5 min at room temperature. The supernatant was carefully removed by aspiration, while approximately, 200 μL of the supernatant was left to limit cell loss. Cellular pellets were stored at −80°C until mineralization.
The determination of the platinum content was performed by ICP-MS (Thermo Optek X Series 2). Mineralization was carried out by adding 70% w/w HNO3 to each sample (after defrosting), followed by incubation for 1 h at 60°C in an ultrasonic bath. Before the ICP-MS measurement, HNO3 was diluted to a final concentration of 1%. The instrument settings were optimized to produce the highest platinum sensitivity, and the most abundant isotopes of Pt and In (used as an internal standard) were quantified at m/z 195 and 115, respectively.
The quantity of Pt found in cells and normalized on cell number (cellular Pt accumulation) was expressed as ng of Pt per 10^6 cells. The mean cellular volume, calculated from the actual mean cell diameter measured for each sample (about 12 μm), was used to obtain the volume of 10^6 cells and, finally, the intracellular Pt concentration. At treatment time zero, 100 μL of the medium was taken from each sample to verify the extracellular Pt concentration. The ratio between intracellular and the actual extracellular concentrations is defined as the accumulation ratio, AR [70]. The Pt content in the control experiment, which characterizes any possible Pt contamination during the overall process, was statistically insignificant with respect to the cellular Pt accumulated during treatment, even in the case of A2780cisR.
Experiments with the inhibitors were carried out at 37°C as follows: (i) NaN3 + 2-deoxy-D-glucose (2DG): preincubation for 30 min in PBS with 25 mM NaN3 and 25 mM 2DG, followed by a 10 μM CT with the Pt compounds in Earle's Balanced Salt Solution (EBSS) for 1 h; (ii) cimetidine (CMT): coincubation with 1.5 mM CMT and 10 μM Pt compounds in EBSS for 1 h; (iii) 1-methyl-4-phenylpyridin-1-ium (MPP^+): coincubation with 2.0 mM MPP^+ and 10 μM Pt compounds in EBSS for 1 h; (iv) cytochalasin D (CTD): preincubation for 30 min in EBSS with 10 μM CTD, followed by a 10 μM CT with the Pt compounds in EBSS for 1 h; (v) O-benzylserine (BS): coincubation with 1.0 mM BS and 10 μM Pt compounds in EBSS for 4 h; (vi) ouabain (OUA): preincubation for 1 h in EBSS with 1 mM OUA, followed by a 10 μM CT with the Pt compounds in EBSS for 4 h; (vii) tetraethylammonium chloride (TEA): […] in EBSS for 4 h. In the experiments at low temperature, A2780 cells were preincubated for 2 h at 4°C, followed by CT with each Pt compound (10 μM) for 4 h. In all cases, at the end of the CT, the cells were manipulated as described in the previous paragraphs.

[3] = parameters: method as in PMID 32296997; details: vs. Ag/AgCl, 3M KCl, glassy carbon electrode, scan rate 0.2 V·s^−1; cited from earlier work

SMILES: CC(=O)[O][Pt]([NH2])([NH2])([Cl])([Cl])[O]C(C)=O [Complex 3, (OC-6-33)-diamminedichloridodiacetatoplatinum(IV)]
- Log KW [1]: −0.83
- effect of OCT inhibitors (TEA, MPP+, CMT) on AR [2]: not significantly affected
- effect of NaN3/2DG pretreatment on cell accumulation (AR) [2]: without appreciably affecting
- E p (reduction peak potential) [3]: −0.486 V

SMILES: CC(=O)[O][Pt]([OH])([Cl])[Cl].N.N [Complex 2, (OC-6-44)-acetatodiamminedichloridohydroxidoplatinum(IV)]
- Log KW [1]: −0.96
- effect of O-benzylserine (BS) on cellular accumulation ([2]; BS cotreatment 1 mM): did not cause a significant effect
- effect of cimetidine (CMT) on cell accumulation ([2]; CMT cotreatment 1.5 mM): inhibited
- effect of cytochalasin D (CTD) on Pt accumulation ([2]; CTD pretreatment 10 μM): did not cause any decrease
- effect of MPP+ on cell accumulation ([2]; MPP+ cotreatment 2 mM): inhibited
- effect of NaN3/2DG pretreatment on cell accumulation (AR) [2]: statistically reduced
- effect of ouabain (OUA) on cellular accumulation ([2]; OUA pretreatment 1 mM): did not cause a significant effect
- effect of tetraethylammonium (TEA) on uptake ([2]; TEA pretreatment 20 mg·mL^−1): evident (albeit statistically not significant) decrease
- E p (reduction peak potential) [3]: −0.618 V

SMILES: N.N.[OH][Pt]([OH])([Cl])[Cl] [Complex 1, (OC-6-33)-diamminedichloridodihydroxidoplatinum(IV)]
- Log KW [1]: −1.06
- effect of OCT inhibitors (TEA, MPP+, CMT) on AR [2]: not significantly affected
- effect of NaN3/2DG pretreatment on cell accumulation (AR) [2]: without appreciably affecting
- E p (reduction peak potential) [3]: −0.815 V

SMILES: N.N.[Cl][Pt][Cl] [Cisplatin, (SP-4-2)-diamminedichloridoplatinum(II)]
- Log KW [1]: −0.64
